Data: patent US20240109917A1 (ACTELION PHARMACEUTICALS LTD, priority 2020, published 2024)

Legend:
[1] = biological target: His6-TEV-PDGFRβ (557-1016) (Homo sapiens (Human), UniProt P09619); assay: PDGFRβ HTRF Assay; type: biochemical; conditions: read-out: PDGFR HTRF IC50
How it was run: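 HTRF KinEASE-TK readout (665/620 nm ratio) of TK-biotin substrate phosphorylation by His-tagged PDGFRβ kinase domain. Enzyme and inhibitor preincubated 30 min, then ATP/substrate added for 3 h at room temperature before 60 min EDTA quench/detection.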

VEGFR2, unphosphorylated = VEGFR2, unphosphorylated (Homo sapiens (Human), UniProt P35968); assay: VEGFR ADP GLO Assay; type: biochemical
Sequence of VEGFR2, unphosphorylated (P35968 20-1356): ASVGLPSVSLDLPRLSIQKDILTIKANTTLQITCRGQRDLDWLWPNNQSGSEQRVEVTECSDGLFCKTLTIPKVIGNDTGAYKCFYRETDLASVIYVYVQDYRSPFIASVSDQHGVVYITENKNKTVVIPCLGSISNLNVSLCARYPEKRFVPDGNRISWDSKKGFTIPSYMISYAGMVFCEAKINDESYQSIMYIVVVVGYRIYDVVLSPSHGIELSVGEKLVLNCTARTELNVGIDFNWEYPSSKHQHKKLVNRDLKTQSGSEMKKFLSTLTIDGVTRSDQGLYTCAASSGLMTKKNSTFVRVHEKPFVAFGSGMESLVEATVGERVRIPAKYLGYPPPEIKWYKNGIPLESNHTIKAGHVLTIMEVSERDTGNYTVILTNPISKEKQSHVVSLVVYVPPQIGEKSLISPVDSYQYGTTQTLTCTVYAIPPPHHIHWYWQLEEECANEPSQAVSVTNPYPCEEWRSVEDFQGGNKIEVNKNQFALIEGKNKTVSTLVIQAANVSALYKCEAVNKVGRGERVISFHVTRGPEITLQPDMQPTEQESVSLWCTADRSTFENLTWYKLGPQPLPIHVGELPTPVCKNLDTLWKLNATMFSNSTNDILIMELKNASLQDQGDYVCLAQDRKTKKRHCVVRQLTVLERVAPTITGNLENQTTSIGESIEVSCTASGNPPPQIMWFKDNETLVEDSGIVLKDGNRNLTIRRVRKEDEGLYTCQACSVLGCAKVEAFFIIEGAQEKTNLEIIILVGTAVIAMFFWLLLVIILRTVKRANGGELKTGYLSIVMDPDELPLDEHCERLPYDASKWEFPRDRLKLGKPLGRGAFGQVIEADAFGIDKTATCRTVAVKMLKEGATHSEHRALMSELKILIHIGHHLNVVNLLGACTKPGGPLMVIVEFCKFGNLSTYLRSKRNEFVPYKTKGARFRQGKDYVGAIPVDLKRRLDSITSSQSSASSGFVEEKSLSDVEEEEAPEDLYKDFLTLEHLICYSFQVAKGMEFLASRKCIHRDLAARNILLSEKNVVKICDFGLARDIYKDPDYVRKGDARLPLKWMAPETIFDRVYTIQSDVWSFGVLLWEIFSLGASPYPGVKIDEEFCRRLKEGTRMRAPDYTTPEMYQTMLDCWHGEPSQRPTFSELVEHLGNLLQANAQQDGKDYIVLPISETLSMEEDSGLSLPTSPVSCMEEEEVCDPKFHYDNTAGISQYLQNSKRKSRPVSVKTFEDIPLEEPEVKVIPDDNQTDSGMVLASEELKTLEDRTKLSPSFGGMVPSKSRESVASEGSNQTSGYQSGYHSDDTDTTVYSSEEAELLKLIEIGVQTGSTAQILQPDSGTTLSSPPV

Sequence of His6-TEV-PDGFRβ (557-1016) (P09619 557-1016): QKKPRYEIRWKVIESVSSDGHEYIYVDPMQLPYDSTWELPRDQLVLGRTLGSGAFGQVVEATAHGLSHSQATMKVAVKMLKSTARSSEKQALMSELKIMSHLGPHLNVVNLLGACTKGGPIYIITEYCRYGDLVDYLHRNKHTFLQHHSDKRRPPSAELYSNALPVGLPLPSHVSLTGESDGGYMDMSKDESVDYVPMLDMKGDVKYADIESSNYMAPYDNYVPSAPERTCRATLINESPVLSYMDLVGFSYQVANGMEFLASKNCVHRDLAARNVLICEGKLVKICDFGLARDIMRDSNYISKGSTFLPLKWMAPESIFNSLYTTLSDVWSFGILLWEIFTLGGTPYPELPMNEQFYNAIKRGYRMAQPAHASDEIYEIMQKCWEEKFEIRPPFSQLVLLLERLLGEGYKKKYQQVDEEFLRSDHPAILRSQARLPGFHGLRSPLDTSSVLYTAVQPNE

Which results are given for `Cc1ncc(C(=O)NCCN2CC3CCC2CC3)cc1NC(=O)c1cnn2cc(-c3cnn(C4CC4)c3)sc12` [Example 181, N-(5-((2-(2-azabicyclo[2.2.2]octan-2-yl)ethyl)carbamoyl)-2-methylpyridin-3-yl)-2-(1-cyclopropyl-1H-pyrazol-4-yl)pyrazolo[5,1-b]thiazole-7-carboxamide]?
IC50 [1]: 0.2 nM; IC50 (VEGFR2, unphosphorylated): > 7500 nM

Which results are given for `Cc1ncc(NC(=O)OCC(C)(C)N2CCCC2)cc1NC(=O)c1cnn2cc(-c3cnn(C)c3)sc12` [Example 249, 2-methyl-2-(pyrrolidin-1-yl)propyl (6-methyl-5-(2-(1-methyl-1H-pyrazol-4-yl)pyrazolo[5,1-b]thiazole-7-carboxamido)pyridin-3-yl)carbamate]?
IC50 [1]: 0.5 nM; IC50 (VEGFR2, unphosphorylated): > 7500 nM

With `Cc1ncc(C(=O)NCCN2CCCC2(C)C)cc1NC(=O)c1cnn2cc(-c3cnn(CCC(O)CO)c3)sc12` (centres unmarked) [Example 221, 2-(1-(3,4-Dihydroxybutyl)-1H-pyrazol-4-yl)-N-(5-((2-(2,2-dimethylpyrrolidin-1-yl)ethyl)carbamoyl)-2-methylpyridin-3-yl)pyrazolo[5,1-b]thiazole-7-carboxamide] as the compound, how does the IC50 [1] read?
The IC50 was 0.9 nM.

What about the IC50 (VEGFR2, unphosphorylated) of the same compound?
Its IC50 is over 7500 nM.

For `Cc1ncc(C(=O)NCCN2CC3CCC2C3)cc1NC(=O)c1cnn2cc(-c3cn(C)nc3C)sc12` (centres unmarked) [Example 212, N-(5-((2-(2-azabicyclo[2.2.1]heptan-2-yl)ethyl)carbamoyl)-2-methylpyridin-3-yl)-2-(1,3-dimethyl-1H-pyrazol-4-yl)pyrazolo[5,1-b]thiazole-7-carboxamide], which IC50 [1] is on record?
Its IC50 is 0.3 nM.

And the IC50 (VEGFR2, unphosphorylated)?
The IC50 was over 7500 nM.

`Cc1cc(C(=O)NCC(C)(C)N2CCCC2)sc1NC(=O)c1cnn2cc(-c3cnn(C)c3)sc12` [Example 202, 2-(1-methyl-1H-pyrazol-4-yl)-N-(3-methyl-5-((2-methyl-2-(pyrrolidin-1-yl)propyl)carbamoyl)thiophen-2-yl)pyrazolo[5,1-b]thiazole-7-carboxamide] was tested. Which IC50 [1] did it give?
The IC50 was 1070 nM.

And the IC50 (VEGFR2, unphosphorylated)?
The IC50 was over 7500 nM.

Which results are given for `COc1ncccc1-c1cn2ncc(C(=O)Nc3cc(C(=O)NCCN4CCCC4(C)C)cnc3C)c2s1` [Example 226, N-(5-((2-(2,2-Dimethylpyrrolidin-1-yl)ethyl)carbamoyl)-2-methylpyridin-3-yl)-2-(2-methoxypyridin-3-yl)pyrazolo[5,1-b]thiazole-7-carboxamide]?
IC50 [1]: 0.2 nM; IC50 (VEGFR2, unphosphorylated): > 2500 nM

`Cc1ncc(NC(=O)CN2CCCC2(C)C)cc1NC(=O)c1cnn2cc(-c3cnn(C)c3)sc12` [Example 13, N-(5-(2-(2,2-dimethylpyrrolidin-1-yl)acetamido)-2-methylpyridin-3-yl)-2-(1-methyl-1H-pyrazol-4-yl)pyrazolo[5,1-b]thiazole-7-carboxamide] was tested. Which IC50 [1] did it give?
The IC50 was 0.5 nM.

What about the IC50 (VEGFR2, unphosphorylated) of the same compound?
The IC50 was over 7500 nM.

Which IC50 [1] does the source give for `Cc1ncc(C(=O)NCCN2CCCC2)cc1NC(=O)c1cnn2cc(-c3cn(C)nc3C)sc12` [Example 218, 2-(1,3-Dimethyl-1H-pyrazol-4-yl)-N-(2-methyl-5-((2-(pyrrolidin-1-yl)ethyl)carbamoyl)pyridin-3-yl)pyrazolo[5,1-b]thiazole-7-carboxamide] here?
Its IC50 is 0.3 nM.

What about the IC50 (VEGFR2, unphosphorylated) of the same compound?
The IC50 was over 7500 nM.

For `Cc1ncc(NC(=O)CN2CCC3(COC3)C2)cc1NC(=O)c1cnn2cc(-c3cnn(C)c3)sc12` [Example 18, N-(5-(2-(2-oxa-6-azaspiro[3.4]octan-6-yl)acetamido)-2-methylpyridin-3-yl)-2-(1-methyl-1H-pyrazol-4-yl)pyrazolo[5,1-b]thiazole-7-carboxamide], which IC50 [1] is on record?
The IC50 was 0.6 nM.

And the IC50 (VEGFR2, unphosphorylated)?
Its IC50 is over 7500 nM.

With `Cc1ncc(C(=O)NCCN2C[C@H]3CC[C@@H]2C3)cc1NC(=O)c1cnn2cc(-c3cn(C)nc3C)sc12` [Example 211, N-(5-((2-((1R,4S)-2-azabicyclo[2.2.1]heptan-2-yl)ethyl)carbamoyl)-2-methylpyridin-3-yl)-2-(1,3-dimethyl-1H-pyrazol-4-yl)pyrazolo[5,1-b]thiazole-7-carboxamide] as the compound, how does the IC50 [1] read?
Its IC50 is 0.3 nM.

What about the IC50 (VEGFR2, unphosphorylated) of the same compound?
The IC50 was over 7500 nM.

What does the source list for `Cc1ncc(NC(=O)CCCN2CCC23CCC3)cc1NC(=O)c1cnn2cc(-c3cnn(C)c3)sc12` [Example 215, N-(5-(4-(1-azaspiro[3.3]heptan-1-yl)butanamido)-2-methylpyridin-3-yl)-2-(1-methyl-1H-pyrazol-4-yl)pyrazolo[5,1-b]thiazole-7-carboxamide]?
IC50 [1]: 0.5 nM; IC50 (VEGFR2, unphosphorylated): > 7500 nM

How did the IC50 [1] turn out when `Cc1ncc(NC(=O)CN(C)C2CCOCC2)cc1NC(=O)c1cnn2cc(-c3cnn(C)c3)sc12` [Example 15, 2-(1-methyl-1H-pyrazol-4-yl)-N-(2-methyl-5-(2-(methyl(tetrahydro-2H-pyran-4-yl)amino)acetamido)pyridin-3-yl)pyrazolo[5,1-b]thiazole-7-carboxamide] was run?
Its IC50 is 0.5 nM.

What about the IC50 (VEGFR2, unphosphorylated) of the same compound?
Its IC50 is over 7500 nM.

Which results are given for `Cc1ncc(C(=O)NCCN2CC3CCC2CC3)cc1NC(=O)c1cnn2cc(-c3cnn(C(F)F)c3)sc12` [Example 180, N-(5-((2-(2-azabicyclo[2.2.2]octan-2-yl)ethyl)carbamoyl)-2-methylpyridin-3-yl)-2-(1-(difluoromethyl)-1H-pyrazol-4-yl)pyrazolo[5,1-b]thiazole-7-carboxamide]?
IC50 [1]: 0.4 nM; IC50 (VEGFR2, unphosphorylated): > 7500 nM

For `Cc1ncc(NC(=O)CCN2CCCC2(C)C)cc1NC(=O)c1cnn2cc(-c3cccc4c3cnn4C)sc12` [Example 241, N-(5-(3-(2,2-dimethylpyrrolidin-1-yl)propanamido)-2-methylpyridin-3-yl)-2-(1-methyl-1H-indazol-4-yl)pyrazolo[5,1-b]thiazole-7-carboxamide], which IC50 [1] is on record?
Its IC50 is 0.1 nM.

What about the IC50 (VEGFR2, unphosphorylated) of the same compound?
The IC50 was over 2500 nM.

What does the source list for `Cc1ncc(C(=O)NCCN2CCCC23CCC3)cc1NC(=O)c1cnn2cc(-c3cn(C)nc3C)sc12` [Example 213, N-(5-((2-(5-azaspiro[3.4]octan-5-yl)ethyl)carbamoyl)-2-methylpyridin-3-yl)-2-(1,3-dimethyl-1H-pyrazol-4-yl)pyrazolo[5,1-b]thiazole-7-carboxamide]?
IC50 [1]: 0.3 nM; IC50 (VEGFR2, unphosphorylated): > 7500 nM

How did the IC50 [1] turn out when `Cc1ncc(C(=O)NCCN2CCCC2(C)C)cc1NC(=O)c1cnn2cc(-n3ncc4cccnc43)sc12` [Example 217, N-(5-((2-(2,2-dimethylpyrrolidin-1-yl)ethyl)carbamoyl)-2-methylpyridin-3-yl)-2-(1H-pyrazolo[3,4-b]pyridin-1-yl)pyrazolo[5,1-b]thiazole-7-carboxamide] was run?
Its IC50 is 0.4 nM.

What about the IC50 (VEGFR2, unphosphorylated) of the same compound?
The IC50 was over 7500 nM.

For `Cc1ncc(NC(=O)CN2CCCC23CC3)cc1NC(=O)c1cnn2cc(-c3cnn(C)c3)sc12` [Example 16, N-(5-(2-(4-azaspiro[2.4]heptan-4-yl)acetamido)-2-methylpyridin-3-yl)-2-(1-methyl-1H-pyrazol-4-yl)pyrazolo[5,1-b]thiazole-7-carboxamide], which IC50 [1] is on record?
The IC50 was 0.5 nM.

What about the IC50 (VEGFR2, unphosphorylated) of the same compound?
Its IC50 is over 7500 nM.

Which IC50 [1] does the source give for `Cc1ncc(C(=O)NCCN2CCCC2)cc1NC(=O)c1cnn2cc(-c3c(C)nn(C)c3C)sc12` [Example 223, N-(2-methyl-5-((2-(pyrrolidin-1-yl)ethyl)carbamoyl)pyridin-3-yl)-2-(1,3,5-trimethyl-1H-pyrazol-4-yl)pyrazolo[5,1-b]thiazole-7-carboxamide] here?
The IC50 was 0.6 nM.

What about the IC50 (VEGFR2, unphosphorylated) of the same compound?
The IC50 was over 833 nM.

Which results are given for `Cc1ncc(C(=O)NCCN2CCCC2(C)C)cc1NC(=O)c1cnn2cc(-c3cccc4c3cnn4C)sc12` [Example 240, N-(5-((2-(2,2-dimethylpyrrolidin-1-yl)ethyl)carbamoyl)-2-methylpyridin-3-yl)-2-(1-methyl-1H-indazol-4-yl)pyrazolo[5,1-b]thiazole-7-carboxamide]?
IC50 [1]: 0.3 nM; IC50 (VEGFR2, unphosphorylated): > 2500 nM
